“And” between values parts separate entries of the source, which are not always exact repeats. Equal entries are not always repeated.
Tests used:
DSH1 = assay: cells; assay type: functional, cell-based, Homo sapiens;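 note: growth inhibition of human DSH1 cells, measured with a cell viability readout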
Description: SANGER: Inhibition of human DSH1 cell growth in a cell viability assay.

DU-145 = assay: cells; assay type: functional, cell-based, Homo sapiens
Description: SANGER: Inhibition of human DU-145 cell growth in a cell viability assay.

DU-4475 = assay: cells; assay type: functional, cell-based; conditions: Homo sapiens
Description: SANGER: Inhibition of human DU-4475 cell growth in a cell viability assay.

EPLC-272H = assay: cells; assay type: functional, cell-based; conditions: Homo sapiens
Description: SANGER: Inhibition of human EPLC-272H cell growth in a cell viability assay.

GB-1 = assay: cells; assay type: functional, cell-based, Homo sapiens;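 note: growth of GB-1 cells judged by a viability assay, IC50 marks the concentration inhibiting growth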
Description: SANGER: Inhibition of human GB-1 cell growth in a cell viability assay.

H-EMC-SS = assay: cells; assay type: functional, cell-based; conditions: Homo sapiens
Description: SANGER: Inhibition of human H-EMC-SS cell growth in a cell viability assay.

H4 = assay: cells; assay type: functional, cell-based; conditions: Homo sapiens
Description: SANGER: Inhibition of human H4 cell growth in a cell viability assay.

HDLM-2 = assay: cells; assay type: functional, cell-based; conditions: Homo sapiens;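 note: cell viability assay measuring suppression of HDLM-2 proliferation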
Description: SANGER: Inhibition of human HDLM-2 cell growth in a cell viability assay.

HT-1080 = assay: cells; assay type: functional, cell-based, Homo sapiens
Description: SANGER: Inhibition of human HT-1080 cell growth in a cell viability assay.

HT-144 = assay: cells; assay type: functional, cell-based, Homo sapiens
Description: SANGER: Inhibition of human HT-144 cell growth in a cell viability assay.

HT55 = assay: cells; assay type: functional, cell-based, Homo sapiens;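 note: cell viability readout measuring growth inhibition of human HT55 cells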
Description: SANGER: Inhibition of human HT55 cell growth in a cell viability assay.

J82 = assay: cells; assay type: functional, cell-based; conditions: Homo sapiens;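 note: growth inhibition of J82 cells, read out with a cell viability assay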
Description: SANGER: Inhibition of human J82 cell growth in a cell viability assay.

LS-123 = assay: cells; assay type: functional, cell-based, Homo sapiens
Description: SANGER: Inhibition of human LS-123 cell growth in a cell viability assay.

MOLT-13 = assay: cells; assay type: functional, cell-based; conditions: Homo sapiens;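 note: IC50 for suppression of MOLT-13 cell growth, read out with a cell viability assay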
Description: SANGER: Inhibition of human MOLT-13 cell growth in a cell viability assay.

NCI-H1395 = assay: cells; assay type: functional, cell-based, Homo sapiens;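 note: cell viability assay read-out quantifying reduced proliferation of human NCI-H1395 cells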
Description: SANGER: Inhibition of human NCI-H1395 cell growth in a cell viability assay.

NCI-H1573 = assay: cells; assay type: functional, cell-based; conditions: Homo sapiens;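 note: growth inhibition of NCI-H1573 cells, read out with a cell viability assay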
Description: SANGER: Inhibition of human NCI-H1573 cell growth in a cell viability assay.

NCI-H1792 = assay: cells; assay type: functional, cell-based, Homo sapiens;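 note: growth inhibition of human NCI-H1792 cells, read out as cell viability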
Description: SANGER: Inhibition of human NCI-H1792 cell growth in a cell viability assay.

NCI-H441 = assay: cells; assay type: functional, cell-based; conditions: Homo sapiens;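 note: growth inhibition of NCI-H441 cells, read out with a cell viability assay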
Description: SANGER: Inhibition of human NCI-H441 cell growth in a cell viability assay.

NCI-H522 = assay: cells; assay type: functional, cell-based, Homo sapiens;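 note: cell viability assay measuring growth inhibition of human NCI-H522 cells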
Description: SANGER: Inhibition of human NCI-H522 cell growth in a cell viability assay.

PA-1 = assay: cells; assay type: functional, cell-based, Homo sapiens;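 note: IC50 for suppression of PA-1 cell proliferation, determined with a cell viability read-out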
Description: SANGER: Inhibition of human PA-1 cell growth in a cell viability assay.

PC-14 = assay: cells; assay type: functional, cell-based, Homo sapiens;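 note: cell viability assay measuring inhibition of PC-14 cell growth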
Description: SANGER: Inhibition of human PC-14 cell growth in a cell viability assay.

SK-MEL3 = assay: cells; assay type: functional, cell-based, Homo sapiens, SK-MEL-3;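 note: growth inhibition of human SK-MEL-3 cells, read out with a cell viability assay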
Description: SANGER: Inhibition of human SK-MEL-3 cell growth in a cell viability assay.

SNU-423 = assay: cells; assay type: functional, cell-based, Homo sapiens
Description: SANGER: Inhibition of human SNU-423 cell growth in a cell viability assay.

A3-KAW = assay: cells; assay type: functional, cell-based; conditions: Homo sapiens;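 note: growth inhibition of human A3-KAW cells, read out with a cell viability assay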
Description: SANGER: Inhibition of human A3-KAW cell growth in a cell viability assay.

AU565 = assay: cells; assay type: functional, cell-based, Homo sapiens;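 note: cell viability assay measuring growth inhibition of human AU565 cells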
Description: SANGER: Inhibition of human AU565 cell growth in a cell viability assay.

TE-6 = assay: cells; assay type: functional, cell-based, Homo sapiens;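 note: growth inhibition of TE-6 cells, read out with a cell viability assay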
Description: SANGER: Inhibition of human TE-6 cell growth in a cell viability assay.

ZR-75-30 = assay: cells; assay type: functional, cell-based; conditions: Homo sapiens;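 note: growth inhibition of ZR-75-30 cells, measured with a cell viability readout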
Description: SANGER: Inhibition of human ZR-75-30 cell growth in a cell viability assay.

no-11 = assay: cells; assay type: functional, cell-based, Homo sapiens;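 note: growth inhibition of human NO-11 cells, read out with a cell viability assay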
Description: SANGER: Inhibition of human no-11 cell growth in a cell viability assay.

CGTH-W-1 = assay: cells; assay type: functional, cell-based, Homo sapiens;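 note: growth inhibition of human CGTH-W-1 cells measured by cell viability assay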
Description: SANGER: Inhibition of human CGTH-W-1 cell growth in a cell viability assay.

COLO-680N = assay: cells; assay type: functional, cell-based, Homo sapiens;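 note: cell viability assay used to measure inhibition of COLO-680N cell growth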
Description: SANGER: Inhibition of human COLO-680N cell growth in a cell viability assay.

CPC-N = assay: cells; assay type: functional, cell-based; conditions: Homo sapiens;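 note: growth inhibition of CPC-N cells, with a cell viability assay as the readout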
Description: SANGER: Inhibition of human CPC-N cell growth in a cell viability assay.

DMS-153 = assay: cells; assay type: functional, cell-based; conditions: Homo sapiens
Description: SANGER: Inhibition of human DMS-153 cell growth in a cell viability assay.

EB2 = assay: cells; assay type: functional, cell-based; conditions: Homo sapiens;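 note: growth inhibition of EB2 cells, read out with a cell viability assay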
Description: SANGER: Inhibition of human EB2 cell growth in a cell viability assay.

G-361 = assay: cells; assay type: functional, cell-based, Homo sapiens
HSC-4 = assay: cells; assay type: functional, cell-based, Homo sapiens; conditions: hsc-4;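 note: growth inhibition of human HSC-4 cells, read out with a cell viability assay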
Description: SANGER: Inhibition of human HSC-4 cell growth in a cell viability assay.

LC4-1 = assay: cells; assay type: functional, cell-based; conditions: Homo sapiens;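 note: growth inhibition of LC4-1 cells, read out with a cell viability assay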
Description: SANGER: Inhibition of human LC4-1 cell growth in a cell viability assay.

MC-CAR = assay: cells; assay type: functional, cell-based; conditions: Homo sapiens;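 note: growth inhibition of the human MC-CAR cell line, read out by a cell viability assay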
Description: SANGER: Inhibition of human MC-CAR cell growth in a cell viability assay.

MEL-JUSO = assay: cells; assay type: functional, cell-based, Homo sapiens;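 note: growth inhibition of human MEL-JUSO cells, read out with a cell viability assay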
Description: SANGER: Inhibition of human MEL-JUSO cell growth in a cell viability assay.

NALM-6 = assay: cells; assay type: functional, cell-based; conditions: Homo sapiens;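 note: growth inhibition of NALM-6 cells, read out with a cell viability assay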
Description: SANGER: Inhibition of human NALM-6 cell growth in a cell viability assay.

NCCIT = assay: SANGER: Inhibition of human NCCIT cell growth in a cell viability assay.; assay type: functional, cell-based
NCI-H1522 = assay: cells; assay type: functional, cell-based; conditions: Homo sapiens;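 note: growth inhibition of NCI-H1522 cells, read out with a cell viability assay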
Description: SANGER: Inhibition of human NCI-H1522 cell growth in a cell viability assay.

NCI-H524 = assay: cells; assay type: functional, cell-based; conditions: Homo sapiens;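 note: growth inhibition of human NCI-H524 cells, read out through a cell viability assay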
Description: SANGER: Inhibition of human NCI-H524 cell growth in a cell viability assay.

NCI-H64 = assay: cells; assay type: functional, cell-based; conditions: Homo sapiens;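 note: growth inhibition of NCI-H64 cells, read out with a cell viability assay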
Description: SANGER: Inhibition of human NCI-H64 cell growth in a cell viability assay.

NCI-H748 = assay: cells; assay type: functional, cell-based; conditions: Homo sapiens;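 note: growth inhibition of NCI-H748 cells, measured by a cell viability assay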
Description: SANGER: Inhibition of human NCI-H748 cell growth in a cell viability assay.

NCI-H889 = assay: cells; assay type: functional, cell-based; conditions: Homo sapiens;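 note: cell growth inhibition of the cell line, read out with a viability assay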
Description: SANGER: Inhibition of human NCI-H889 cell growth in a cell viability assay.

REH = assay: cells; assay type: functional, cell-based; conditions: Homo sapiens;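 note: growth inhibition of REH cells determined with a cell viability read-out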
Description: SANGER: Inhibition of human REH cell growth in a cell viability assay.

RPMI 8402 = assay: SANGER: Inhibition of human RPMI-8402 cell growth in a cell viability assay.; assay type: functional, cell-based
SIG-M5 = assay: cells; assay type: functional, cell-based; conditions: Homo sapiens;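 note: cell viability assay read-out, measuring how strongly growth of cultured human SIG-M5 cells is inhibited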
Description: SANGER: Inhibition of human SIG-M5 cell growth in a cell viability assay.

SR = assay: cells; assay type: functional, cell-based; conditions: Homo sapiens
Description: SANGER: Inhibition of human SR cell growth in a cell viability assay.

ST486 = assay: SANGER: Inhibition of human ST486 cell growth in a cell viability assay.; assay type: functional, cell-based
TALL-1 = assay: cells; assay type: functional, cell-based; conditions: Homo sapiens;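 note: growth inhibition of cultured human TALL-1 cells, read out by a cell viability assay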
Description: SANGER: Inhibition of human TALL-1 cell growth in a cell viability assay.

23132-87 = assay: cells; assay type: functional, cell-based, Homo sapiens
Description: SANGER: Inhibition of human 23132-87 cell growth in a cell viability assay.

BC-3 = assay: cells; assay type: functional, cell-based; conditions: Homo sapiens;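 note: cell viability assay measuring growth inhibition of human BC-3 cells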
Description: SANGER: Inhibition of human BC-3 cell growth in a cell viability assay.

TE-441-T = assay: cells; assay type: functional, cell-based; conditions: Homo sapiens
Description: SANGER: Inhibition of human TE-441-T cell growth in a cell viability assay.

THP-1 = assay: cells; assay type: functional, cell-based; conditions: Homo sapiens;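 note: growth inhibition of THP-1 cells, read out via a cell viability assay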
Description: SANGER: Inhibition of human THP-1 cell growth in a cell viability assay.

TUR = assay: cells; assay type: functional, cell-based; conditions: Homo sapiens;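 note: growth inhibition of human TUR cells, read out with a cell viability assay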
Description: SANGER: Inhibition of human TUR cell growth in a cell viability assay.

U-698-M = assay: cells; assay type: functional, cell-based; conditions: Homo sapiens
Description: SANGER: Inhibition of human U-698-M cell growth in a cell viability assay.

CMK = assay: cells; assay type: functional, cell-based; conditions: Homo sapiens;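 note: growth inhibition of CMK cells, read out as cell viability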
Description: SANGER: Inhibition of human CMK cell growth in a cell viability assay.

SMILES: COc1cc(F)c(F)c(Nc2ccc(I)cc2F)c1NS(=O)(=O)C1(CC(O)CO)CC1 (configuration not stated)
- IC50 (DSH1; Homo sapiens, DSH1): > 5 µM
- IC50 (DU-145; Homo sapiens, DU-145): 1060 nM
- IC50 (DU-4475): 18.3 nM
- IC50 (EPLC-272H): 185 nM
- IC50 (GB-1; Homo sapiens, GB-1): 3.6 µM
- IC50 (H-EMC-SS): 0.917 µM
- IC50 (H4): 3.35 µM
- IC50 (HDLM-2): > 5 µM
- IC50 (HT-1080; Homo sapiens, HT-1080): 538 nM
- IC50 (HT-144; Homo sapiens, HT-144): 0.049 µM
- IC50 (HT55; Homo sapiens, HT55): 2.43 µM
- IC50 (J82): > 5 µM
- IC50 (LS-123; Homo sapiens, LS-123): 2.51 µM
- IC50 (MOLT-13): > 5 µM
- IC50 (NCI-H1395; Homo sapiens, NCI-H1395): > 5 µM
- IC50 (NCI-H1573): > 5 µM
- IC50 (NCI-H1792; Homo sapiens, NCI-H1792): 2.45 µM
- IC50 (NCI-H441): > 5 µM
- IC50 (NCI-H522; Homo sapiens, NCI-H522): > 5 µM
- IC50 (PA-1; Homo sapiens, PA-1): > 5 µM
- IC50 (PC-14; Homo sapiens, PC-14): 4.17 µM
- IC50 (SK-MEL3; Homo sapiens, SK-MEL3): 2.46 µM
- IC50 (SNU-423; Homo sapiens, SNU-423): 4.93 µM
- IC50 (A3-KAW): > 5 µM
- IC50 (AU565; Homo sapiens, AU565): > 5 µM
- IC50 (TE-6; Homo sapiens, TE-6): > 5 µM
- IC50 (ZR-75-30): > 5 µM
- IC50 (no-11; Homo sapiens): > 5 µM
- IC50 (CGTH-W-1; Homo sapiens, CGTH-W-1): 2.73 µM
- IC50 (COLO-680N; Homo sapiens, COLO-680N): > 5 µM

SMILES: Cc1cc([C@@H](C)Nc2ccccc2C(=O)O)c2nc(N3CCOCC3)cc(=O)n2c1 [AZD-6482]
- IC50 (CPC-N): > 5.12 µM
- IC50 (DMS-153): > 5.12 µM
- IC50 (DSH1; Homo sapiens, DSH1): > 5.12 µM
- IC50 (DSH1; dsh1): > 5.12 µM
- IC50 (DU-145; du-145): > 5120 nM and 1370 nM
- IC50 (DU-4475): > 5120 nM
- IC50 (EB2): 1750 nM
- IC50 (EPLC-272H): > 5120 nM
- IC50 (G-361; g-361): 3.9 µM and > 5.12 µM
- IC50 (GB-1; gb-1): > 5.12 µM
- IC50 (H-EMC-SS): > 5.12 µM
- IC50 (HDLM-2): > 5.12 µM
- IC50 (HSC-4): > 5.12 µM
- IC50 (HT-1080; ht-1080): > 5120 nM
- IC50 (HT-144; Homo sapiens, HT-144): > 5.12 µM
- IC50 (HT-144; ht-144): > 5.12 µM
- IC50 (HT55; Homo sapiens, HT55): > 5.12 µM
- IC50 (HT55; ht55): > 5.12 µM
- IC50 (LC4-1): > 5.12 µM
- IC50 (LS-123; ls-123): > 5.12 µM
- IC50 (MC-CAR): > 5.12 µM
- IC50 (MEL-JUSO; mel-juso): > 5.12 µM
- IC50 (NALM-6): 705 nM
- IC50 (NCCIT): > 5.12 µM
- IC50 (NCI-H1395; nci-h1395): > 5.12 µM
- IC50 (NCI-H1522): > 5.12 µM
- IC50 (NCI-H1573): > 5.12 µM
- IC50 (NCI-H1792; nci-h1792): > 5.12 µM
- IC50 (NCI-H441): > 5.12 µM
- IC50 (NCI-H522; nci-h522): > 5.12 µM
- IC50 (NCI-H524): > 5.12 µM
- IC50 (NCI-H64): 2620 nM
- IC50 (NCI-H748): > 5.12 µM
- IC50 (NCI-H889): > 5.12 µM
- IC50 (PA-1; pa-1): > 5.12 µM and 2.43 µM
- IC50 (PC-14; pc-14): > 5.12 µM
- IC50 (REH): > 5.12 µM
- IC50 (RPMI 8402): > 5.12 µM
- IC50 (SIG-M5): > 5.12 µM
- IC50 (SK-MEL3; Homo sapiens, SK-MEL3): > 5.12 µM
- IC50 (SK-MEL3; sk-mel-3): > 5.12 µM
- IC50 (SNU-423; snu-423): 1.57 µM and > 5.12 µM
- IC50 (SR): > 5.12 µM
- IC50 (ST486): > 5.12 µM
- IC50 (TALL-1): > 5.12 µM
- IC50 (23132-87): 3.36 µM
- IC50 (23132-87; Homo sapiens): > 5.12 µM
- IC50 (A3-KAW): > 5.12 µM
- IC50 (AU565; Homo sapiens, AU565): > 5.12 µM
- IC50 (AU565; au565): > 5.12 µM
- IC50 (BC-3): > 5.12 µM
- IC50 (TE-441-T): > 5.12 µM
- IC50 (TE-6; te-6): > 5.12 µM
- IC50 (THP-1): > 5.12 µM
- IC50 (TUR): > 5.12 µM
- IC50 (U-698-M): > 5.12 µM
- IC50 (no-11): > 5.12 µM
- IC50 (CGTH-W-1; cgth-w-1): > 5.12 µM
- IC50 (CMK): 4.57 µM
- IC50 (COLO-680N; colo-680n): > 5.12 µM

SMILES: O=c1cc(-c2cccc3c2Sc2ccccc2S3)oc(N2CCOCC2)c1 [KU-55933]
- IC50 (DSH1; Homo sapiens, DSH1): > 10 µM
- IC50 (DU-145; Homo sapiens, DU-145): 3270 nM
- IC50 (DU-4475): > 10000 nM
- IC50 (EPLC-272H): > 10000 nM
- IC50 (G-361; Homo sapiens, G-361): > 10 µM
- IC50 (GB-1; Homo sapiens, GB-1): > 10 µM
- IC50 (H-EMC-SS): > 10 µM
- IC50 (H4): > 10 µM
- IC50 (HDLM-2): > 10 µM
- IC50 (HT-1080; Homo sapiens, HT-1080): > 10000 nM
- IC50 (HT-144; Homo sapiens, HT-144): > 10 µM
- IC50 (HT55; Homo sapiens, HT55): > 10 µM
- IC50 (J82): > 10 µM
- IC50 (LS-123; Homo sapiens, LS-123): > 10 µM
- IC50 (MEL-JUSO; Homo sapiens, MEL-JUSO): > 10 µM
- IC50 (NCI-H1395; Homo sapiens, NCI-H1395): > 10 µM
- IC50 (NCI-H1573): > 10 µM
- IC50 (NCI-H1792; Homo sapiens, NCI-H1792): > 10 µM
- IC50 (NCI-H441): > 10 µM
- IC50 (NCI-H522; Homo sapiens, NCI-H522): > 10 µM
- IC50 (PA-1; Homo sapiens, PA-1): > 10 µM
- IC50 (PC-14; Homo sapiens, PC-14): > 10 µM
- IC50 (SK-MEL3; Homo sapiens, SK-MEL3): 8.29 µM
- IC50 (SNU-423; Homo sapiens, SNU-423): > 10 µM
- IC50 (23132-87; Homo sapiens): > 10 µM
- IC50 (A3-KAW): > 10 µM
- IC50 (AU565; Homo sapiens, AU565): > 10 µM
- IC50 (TE-6; Homo sapiens, TE-6): > 10 µM
- IC50 (ZR-75-30): > 10 µM
- IC50 (no-11; Homo sapiens): > 10 µM
- IC50 (CGTH-W-1; Homo sapiens, CGTH-W-1): > 10 µM
- IC50 (COLO-680N; Homo sapiens, COLO-680N): > 10 µM

— ChEMBL document CHEMBL1201861, “Genomics of Drug Sensitity in Cancer screening data, Wellcome Trust Sanger Institute”
